Reference: PMC8966755, “In Silico and In Vitro Screening of Natural Compounds as Broad-Spectrum β-Lactamase Inhibitors against Acinetobacter baumannii New Delhi Metallo-β-lactamase-1 (NDM-1)” (BioMed Research International, 2022)
Read-outs that look alike come from different tables or passages of the source.

What was measured:
β-lactamase = experiment: β-Lactamase enzyme inhibitory activity assay; assay type: biochemical; details: β-lactamase inhibition assay
Procedure: . The percent inhibitory curves for the candidate natural compounds with efficacy for NDM-1 and β-lactamase enzyme are given in Figures 5(a) and 5(b). The natural compounds were incubated with NDM-1 enzyme, and the substrate, nitrocefin, and hydrolysis of the substrate were monitored at 490 nm OD.
The eight candidate natural compounds identified by in silico analysis against NDM-1 were also tested for β-lactamase inhibition assay. […]

[1] = system: PAN resistance A. baumannii clinical isolate (strain number: P-29); experiment: Checkerboard synergy titration assay with imipenem (FIC); assay type: cell-based; details: compound 128 mg/L with imipenem; carbapenem-resistant A. baumannii clinical strain
Procedure: The combined effect of the natural compounds and imipenem (Zhejiang Hisun Pharmaceutical, China) was done using the checkerboard synergy titration assay in a 96-well microtitre plate. Imipenem was tested at concentrations of […] than their MIC and two dilutions higher than the MIC. MIC concentration of imipenem (4x) was added in all wells under column 1 of the 96-well checkerboard panel for each concentration of natural compounds (one each row). The compounds were serially diluted at different subinhibitory concentrations, and each concentration was added to the corresponding rows.
A FIC = 0.5 for a compound was taken as synergistic, FIC > 0.5 − 4 was additive/indifferent, and FIC > 4 was taken as antagonistic.
The checkerboard method was used to design the dilution panel, with twofold concentrations above the MIC of the antibiotics and MIC concentration and fivefold below the MIC.

Recombinant NDM-1 enzyme = target: T1, Recombinant NDM-1 enzyme (Klebsiella pneumoniae, UniProt C7C422); experiment: biochemical
T1 construct: purchased RayBiotech Life 230-00554-500
Procedure: The NDM-1 enzyme inhibition assay was carried out spectrophotometrically using nitrocefin as a chromogenic substrate as described previously [27].
The natural compounds were incubated with NDM-1 enzyme, and the substrate, nitrocefin, and hydrolysis of the substrate were monitored at 490 nm OD.

[2] = 1 nM NDM-1, 10 μM ZnSO4, nitrocefin 60 μM, 490 nm, 30°C, compounds 10-100 μM, read-out: IC50 NDM-1 enzyme activity

T1 sequence (C7C422 29-270 limits assumed): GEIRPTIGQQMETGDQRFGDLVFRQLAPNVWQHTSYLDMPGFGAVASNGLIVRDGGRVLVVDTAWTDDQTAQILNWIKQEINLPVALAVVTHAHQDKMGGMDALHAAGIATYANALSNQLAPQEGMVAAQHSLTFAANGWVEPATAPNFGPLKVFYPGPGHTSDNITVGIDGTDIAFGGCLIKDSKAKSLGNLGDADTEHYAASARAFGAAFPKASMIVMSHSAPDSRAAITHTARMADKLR

SMILES | IC50 (β-lactamase) | FIC index [1] | IC50 (Recombinant NDM-1 enzyme) | IC50 (Recombinant NDM-1 enzyme; [2])
O=c1c2cc(O)c(O)cc2oc2cc(O)c([C@@H]3O[C@H](CO)[C@@H](O)[C@H](O)[C@H]3O)c(O)c12 [Mangiferin] | 58 ± 2.08 µM | 0.625 | 30.6 ± 4.41 µM | 
COc1c(O)cc2oc3cc(O)c(CC=C(C)C)c(O)c3c(=O)c2c1CC=C(C)C [Mangostin] | 136 ± 37.1 µM |  |  | 97.5 ± 5.59 µM
C[C@@H]1O[C@@H](OC[C@H]2O[C@@H](Oc3c(-c4ccc(O)c(O)c4)oc4cc(O)cc(O)c4c3=O)[C@H](O)[C@@H](O)[C@@H]2O)[C@H](O)[C@H](O)[C@H]1O [Rutin] | 127 ± 15.9 µM |  |  | 48.9 ± 3.74 µM
CC1=C(CO)C(=O)O[C@@H]([C@@H](C)[C@H]2CC[C@H]3[C@@H]4C[C@H]5O[C@]56[C@@H](O)C=CC(=O)[C@]6(C)[C@H]4CC[C@]23C)C1 [Withaferin A] | 32.8 ± 2.59 µM | 0.3125 | 24 ± 2.92 µM | 
CC1(C)[C@H](C(=O)O)N2C(=O)C[C@H]2S1(=O)=O [sulbactam, reference compound] | 7.24 ± 0.392 µM |  |  | 
